# Reference: patent US10023564B2, “G protein-coupled receptor kinase 2 inhibitors and methods for use of the same” (THE REGENTS OF THE UNIVERSITY OF MICHIGAN, priority 2014, dated 2018)
# Key:
# GRK2 [1] = molecular target: T1, GRK2 (Homo sapiens (Human), UniProt P25098); test: GRK2 kinetic assay (phosphorylation of bROS or tubulin, phosphorimaging); assay type: biochemical; settings: 50 nM GRK, 5 μM ATP, 5 min reaction
# Protocol: The low salt concentration and DDM were used to maximize GRK activity and disrupt small molecule aggregates from forming, respectively. […] Data was analyzed and inhibition curves were fit via GraphPad Prism.
# ROCK1 = ROCK1 (Homo sapiens (Human), UniProt Q13464); test: Rho-associated coiled-coil kinase (ROCK) assay, ADP-Glo system; assay type: biochemical; settings: 0.1 μg ROCK1, 1 μg S6K substrate, 100 μM ATP, 60 min
# Chain of ROCK1 (Q13464 whole entry, species assumed): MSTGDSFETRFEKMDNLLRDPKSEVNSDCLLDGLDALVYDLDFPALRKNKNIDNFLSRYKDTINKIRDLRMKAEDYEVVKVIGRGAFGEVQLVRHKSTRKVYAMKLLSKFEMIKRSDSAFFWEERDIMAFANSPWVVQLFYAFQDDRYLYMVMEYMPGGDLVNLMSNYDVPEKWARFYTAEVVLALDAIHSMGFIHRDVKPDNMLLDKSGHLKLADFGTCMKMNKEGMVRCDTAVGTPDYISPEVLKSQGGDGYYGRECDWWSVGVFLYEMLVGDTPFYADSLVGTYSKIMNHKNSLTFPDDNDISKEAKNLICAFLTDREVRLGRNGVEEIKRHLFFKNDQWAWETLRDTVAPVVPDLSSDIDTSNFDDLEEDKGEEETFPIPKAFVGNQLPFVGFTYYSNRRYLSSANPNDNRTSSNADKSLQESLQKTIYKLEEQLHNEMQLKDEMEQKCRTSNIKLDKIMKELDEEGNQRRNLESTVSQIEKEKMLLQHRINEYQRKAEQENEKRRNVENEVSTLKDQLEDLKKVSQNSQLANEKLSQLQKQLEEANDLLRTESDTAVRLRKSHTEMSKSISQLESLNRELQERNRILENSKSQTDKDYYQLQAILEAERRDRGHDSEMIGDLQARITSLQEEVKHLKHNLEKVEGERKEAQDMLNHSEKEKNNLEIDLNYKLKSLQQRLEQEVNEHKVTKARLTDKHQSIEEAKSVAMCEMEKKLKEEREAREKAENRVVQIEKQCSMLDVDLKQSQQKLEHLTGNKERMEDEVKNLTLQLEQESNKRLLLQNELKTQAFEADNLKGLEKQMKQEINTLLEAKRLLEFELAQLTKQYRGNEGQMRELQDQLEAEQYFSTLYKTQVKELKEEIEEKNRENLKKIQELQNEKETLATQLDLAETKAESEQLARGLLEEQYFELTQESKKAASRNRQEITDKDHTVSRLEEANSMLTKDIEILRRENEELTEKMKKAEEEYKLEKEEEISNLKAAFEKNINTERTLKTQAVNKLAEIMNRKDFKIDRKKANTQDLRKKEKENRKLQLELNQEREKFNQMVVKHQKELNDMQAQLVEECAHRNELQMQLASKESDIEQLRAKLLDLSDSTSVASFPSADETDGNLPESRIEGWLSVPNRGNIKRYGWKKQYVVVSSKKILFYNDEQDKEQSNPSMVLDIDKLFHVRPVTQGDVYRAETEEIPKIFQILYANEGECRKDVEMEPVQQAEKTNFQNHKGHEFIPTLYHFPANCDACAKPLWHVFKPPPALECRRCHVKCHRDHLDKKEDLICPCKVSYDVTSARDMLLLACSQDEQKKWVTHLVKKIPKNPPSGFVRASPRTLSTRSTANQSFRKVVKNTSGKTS
# Protocol: Rho-associated coiled-coil kinase (ROCK) assays were performed with the ADP-Glo system using 0.1 μg ROCK1 and 1 μg S6K substrate, and 100 μM ATP for 60 min prior to addition of ADP-GLO Reagent, and allowed to incubate for an additional 40 min prior to the addition of the Kinase Detection Reagent and imaging on a PHERASTAR system.
# GRK2 [2] = molecular target: T1, GRK2; settings: literature (Setyawan et al. 1999; Tesmer et al. 2010); cited from earlier work
# T1 sequence (P25098 whole entry, species assumed): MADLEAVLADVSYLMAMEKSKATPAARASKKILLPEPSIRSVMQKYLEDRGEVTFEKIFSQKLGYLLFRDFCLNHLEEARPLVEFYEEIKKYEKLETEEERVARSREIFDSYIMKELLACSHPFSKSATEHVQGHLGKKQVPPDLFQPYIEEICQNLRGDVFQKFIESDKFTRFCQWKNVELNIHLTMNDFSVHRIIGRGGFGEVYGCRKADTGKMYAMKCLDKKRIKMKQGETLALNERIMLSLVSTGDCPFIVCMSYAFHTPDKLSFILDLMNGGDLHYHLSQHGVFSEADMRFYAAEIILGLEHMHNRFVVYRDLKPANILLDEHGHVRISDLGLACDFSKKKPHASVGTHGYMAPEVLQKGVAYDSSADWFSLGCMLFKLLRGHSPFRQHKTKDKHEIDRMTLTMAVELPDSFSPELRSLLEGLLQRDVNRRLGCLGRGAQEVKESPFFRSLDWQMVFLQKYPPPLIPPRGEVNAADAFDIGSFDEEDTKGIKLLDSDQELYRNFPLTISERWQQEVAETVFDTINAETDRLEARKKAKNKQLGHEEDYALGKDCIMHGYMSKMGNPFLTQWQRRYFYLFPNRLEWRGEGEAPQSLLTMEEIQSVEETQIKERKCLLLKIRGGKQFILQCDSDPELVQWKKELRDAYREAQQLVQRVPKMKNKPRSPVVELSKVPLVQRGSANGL
SMILES,IC50 (GRK2 [1]) [µM],IC50 (ROCK1) [µM],GRK2 inhibition potency (GRK2 [2])
"CC1=C(C(=O)Nc2ccc3[nH]ncc3c2)C(c2ccc(F)c(C(=O)NCc3c(F)cccc3F)c2)NC(=O)N1 (stereo not shown) [Example E02, 4-(3-((2,6-difluorobenzyl)carbamoyl)-4-fluorophenyl)-N-(1H-indazol-5-yl)-6-methyl-2-oxo-1,2,3,4-tetrahydropyrimidine-5-carboxamide]",0.12,0.061,
"CC1=C(C(=O)Nc2ccc3[nH]ncc3c2)C(c2ccc(F)c(C(=O)NCc3nccc4ccccc34)c2)NC(=O)N1 (stereo not shown) [Example E08, 4-(4-fluoro-3-((isoquinolin-1-ylmethyl)carbamoyl)phenyl)-N-(1H-indazol-5-yl)-6-methyl-2-oxo-1,2,3,4-tetrahydropyrimidine-5-carboxamide]",2.6,0.017,
"CC1=C(C(=O)Nc2ccc3[nH]ncc3c2)C(c2ccc(F)c(CC(=O)N3CCOC(CCO)C3)c2)NC(=O)N1 (stereo not shown) [Example E31, 4-(4-fluoro-3-(2-(2-(2-hydroxyethyl)morpholino)-2-oxoethyl)phenyl)-N-(1H-indazol-5-yl)-6-methyl-2-oxo-1,2,3,4-tetrahydropyrimidine-5-carboxamide]",1.5,,
"CC1=C(C(=O)Nc2ccc3[nH]ncc3c2)C(c2ccc(F)c(CC(=O)N(CCO)Cc3ccco3)c2)NC(=O)N1 (stereo not shown) [Example E32, 4-(4-fluoro-3-(2-((furan-2-ylmethyl)(2-hydroxyethyl)amino)-2-oxoethyl)phenyl)-N-(1H-indazol-5-yl)-6-methyl-2-oxo-1,2,3,4-tetrahydropyrimidine-5-carboxamide]",0.5,,
"CC1=C(C(=O)Nc2ccc3[nH]ncc3c2)C(c2ccc(F)c(CC(=O)NCC3CCN(C4CC4)CC3)c2)NC(=O)N1 (stereo not shown) [Example E33, 4-(3-(2-(((1-cyclopropylpiperidin-4-yl)methyl)amino)-2-oxoethyl)-4-fluorophenyl)-N-(1H-indazol-5-yl)-6-methyl-2-oxo-1,2,3,4-tetrahydropyrimidine-5-carboxamide]",0.68,,
"CC1=C(C(=O)Nc2ccc3[nH]ncc3c2)C(c2ccc(F)c(CC(=O)N(C)Cc3nc(C)c[nH]3)c2)NC(=O)N1 (stereo not shown) [Example E34, 4-(4-fluoro-3-(2-(methyl((4-methyl-1H-imidazol-2-yl)methyl)amino)-2-oxoethyl)phenyl)-N-(1H-indazol-5-yl)-6-methyl-2-oxo-1,2,3,4-tetrahydropyrimidine-5-carboxamide]",1.2,,
"C#CCN(Cc1ccco1)C(=O)Cc1cc(C2NC(=O)NC(C)=C2C(=O)Nc2ccc3[nH]ncc3c2)ccc1F (stereo not shown) [Example E35, 4-(4-fluoro-3-(2-((furan-2-ylmethyl)(prop-2-yn-1-yl)amino)-2-oxoethyl)phenyl)-N-(1H-indazol-5-yl)-6-methyl-2-oxo-1,2,3,4-tetrahydropyrimidine-5-carboxamide]",0.96,,
"C#CCN(CC(C)C)C(=O)Cc1cc(C2NC(=O)NC(C)=C2C(=O)Nc2ccc3[nH]ncc3c2)ccc1F (stereo not shown) [Example E36, 4-(4-fluoro-3-(2-(isobutyl(prop-2-yn-1-yl)amino)-2-oxoethyl)phenyl)-N-(1H-indazol-5-yl)-6-methyl-2-oxo-1,2,3,4-tetrahydropyrimidine-5-carboxamide]",2.6,,
"CC1=C(C(=O)Nc2ccc3[nH]ncc3c2)C(c2ccc(F)c(CCC(=O)NCc3ncc(C)o3)c2)NC(=O)N1 (stereo not shown) [Example E37, 4-(4-fluoro-3-(3-(((5-methyloxazol-2-yl)methyl)amino)-3-oxopropyl)phenyl)-N-(1H-indazol-5-yl)-6-methyl-2-oxo-1,2,3,4-tetrahydropyrimidine-5-carboxamide]",4,,
"CC1=C(C(=O)Nc2ccc3[nH]ncc3c2)C(c2ccc(F)c(CCC(=O)NCCc3ccccc3)c2)NC(=O)N1 (stereo not shown) [Example E38, 4-(4-fluoro-3-(3-oxo-3-(phenethylamino)propyl)phenyl)-N-(1H-indazol-5-yl)-6-methyl-2-oxo-1,2,3,4-tetrahydropyrimidine-5-carboxamide]",7,,
O=C(N[C@@H]1CNCCC[C@H]1OC(=O)c1cc(O)c(C(=O)c2c(O)cccc2C(=O)O)c(O)c1)c1ccc(O)cc1 [balanol],,,low nanomolar range
